In PMC10816640, “Discovery of Novel Diphenyl Acrylonitrile Derivatives That Promote Adult Rats’ Hippocampal Neurogenesis” (International Journal of Molecular Sciences, 2024):
“Also recorded” adds a separate entry of the source.

What was measured:
[1] = system: progenitor cells in the rodents’ hippocampi; test: Proliferation stage of neurogenesis: BrdU labeling, rats sacrificed 24 h after BrdU; format: in vivo, rat; conditions: i.p. 4.0 mg/kg/day for 28 days, BrdU pulse, vs vehicle; for proliferation-promoting activity (number of BrdU+ positive cells): nine-week-old rats (n = 4), Figure 8, 4 mg/kg/day
Description: (§1) Previous in vitro or in vivo studies mainly focused on stimulating the proliferation effect of the small molecules. In this study, a two-step protocol was employed. First, the stimulating function of the compounds on progenitor cells in the rodents’ hippocampi was examined with using bromodeoxyuridine (BrdU) labeling. Next, the potent compounds were further screened to ascertain their ability to promote the differentiation of neural progenitor cells, as confirmed by dual labeling of BrdU and NeuN (neuronal nuclear antigen).
Adult rats were administered intraperitoneally with the prepared compounds at a dose of 4.0 mg/kg/day for a period of 28 days, followed by a BrdU pulse. After 24 h, the rats were sacrificed, and their brain tissues were isolated and cryosectioned. Immunohistochemical staining was performed and eight brain tissue slices were randomly selected for statistical analyzing.
Eight-week-old (or 10-week-old) SD male rats purchased from Peking University Health Science Center were acclimatized for one week at the Beijing Institute of Technology. All experimental protocols strictly adhered to the regulations governing the management of experimental animals and the animal ethics policy of the Beijing Institute of Technology.
(§2) The compounds were dissolved in reagent-grade soybean oil containing 10% ethanol to reach a drug concentration of 2.8 mg/mL. The rats in the experimental group received intraperitoneal injections of the compounds at a dose of 4.0 mg/kg/d for 28 consecutive days. As a control, the vehicle group was administered injections of reagent-grade soybean oil containing 10% ethanol. BrdU (Sigma-Aldrich, St. louis, MA, USA) solution, prepared in physiological saline at a concentration of 10 mg/mL, was administered to all rats on day 29. Each rat received two injections of BrdU at a dosage of 50 mg/kg, with a 2 h interval between injections. The rats were euthanized 24 h (or 28 days) after the final BrdU injection.
(§3) Two or four rats per group were anesthetized using pentobarbital sodium (70 mg/kg) and subsequently perfused with physiological saline. The brain tissue was carefully dissected and fixed in 4% paraformaldehyde at 4 °C for one week. Next, the brain tissue underwent dehydration using a phosphate-buffered saline (PBS) solution containing 20% to 30% sucrose. Finally, the brain tissue was cryosectioned into slices with a thickness of 30 μm, and eight slices were randomly selected for further analysis.
The assessment of new cell proliferation was conducted using BrdU staining. To eliminate endogenous peroxides, sections were exposed to 1% H2O2 for 30 min at RT. Cellular denaturation was achieved by treating the sections with 2 M HCl at 37 °C for 1 h, followed by rinsing in 0.1 M borate buffer (pH 8.5). Tissue sections were subjected to blocking in a solution consisting of 5% goat serum and 0.5% Triton X-100 in PBS at RT for 1–2 h. The specimens were then incubated overnight at 4 °C with a mouse primary antibody specific to BrdU (diluted at 1:500; Millipore, Billerica, MA, USA). Subsequently, the DAB kit was employed for 2 h of incubation at RT.
(§4) The data were presented as mean ± SEM (standard error of the mean) and visualized using GRAPHPAD PRISM 6 (Graphpad Software, La Jolla, CA, USA). Statistical analysis was conducted utilizing one-way analysis of variance (ANOVA) followed by a post hoc test. Subsequent to the statistical treatment, the observed discrepancies were determined to be statistically significant (p < 0.05).

hCMEC/D3 cells = test: CCK-8 assay for cytotoxicity; format: cell-based; conditions: hCMEC/D3 cell lines, CCK-8, 48 h incubation
Method: hCMEC/D3 cells were obtained from the Cell Resource Center, Peking Union Medical College (PCRC). All cells were acquired in 2023 and were maintained in culture for no more than 10 continuous passages. The cells were cultured in DMEM (11995065, Gibco, Grand Island, NY, USA) supplemented with 10% FBS (164210-50, Procell, Austin, TX, USA), 100 units of penicillin, and […] of streptomycin (PB180120, Procell).
hCMEC/D3 cells (5 × 10^3) were seeded into 96-well plates in 90 μL of DMEM medium containing 10% fetal bovine serum per well. All test compounds were formulated as 10 mM stock solutions in DMSO (final concentration ≤ 0.5%). After overnight incubation, the test compound stock solution was diluted with DMEM medium containing 10% fetal bovine serum to every target concentration, and 10 μL of each was added to each well. Three parallel experiments were set up for each compound. After incubation for 48 h, 10 μL of CCK-8 reagent was added to each well in sequence according to the manufacturer’s instructions. After incubating in a 37 °C incubator for 1–2 h, the absorbance was measured at a wavelength of 450 nm, using a wavelength of 620 nm as a reference, and detected with a ThermoScientific Multiskan FC (Thermo Fisher Scientific). The graphs are representative results, and this experiment was independently repeated three times with similar results.

[2] = system: newborn neural progenitor cells (differentiation into mature neurons); test: Differentiation stage of neurogenesis: NeuN/BrdU double staining, rats sacrificed 28 days after BrdU; format: in vivo, rat; conditions: for neurogenesis-promoting activity (number of NeuN+ and BrdU+ cells), differentiation stage: nine-week-old rats (n = 4), i.p. 4.0 mg/kg, Figure 9, 4 mg/kg
Description: as §1
The study employed a rat model, wherein nine-week-old rats were administered intraperitoneally with the compound at a dose of 4.0 mg/kg/day for 28 days and then treated with a pulse of BrdU. Instead of sacrificing the rats 24 h after the BrdU injections, the rats were sacrificed after another 28 days. The brains were then isolated and cryosectioned. Eight randomly selected slices were subjected to immunohistochemical staining. This staining enabled the co-localization of the BrdU-incorporated cells with the NeuN marker, enabling the definition of the compounds that could promote the differentiation of newborn neural progenitor cells into mature functional neurons.
as §2, §3
The differentiation process of NPCs was visualized through the utilization of the NeuN/BrdU double staining technique. Tissue sections were subjected to an incubation period in a blocking buffer at RT for 1 to 2 h. The specimens were exposed to a rabbit anti-NeuN antibody (diluted at 1:500, Abcam, Cambridge, MA, UK) and a primary antibody, BrdU (diluted at 1:500), overnight at 4 °C. Afterwards, the sections were treated with anti-mouse 488 and anti-rabbit TRITC secondary antibodies for 2 h at RT.
as §4

Compound	proliferation-promoting activity (number of BrdU+ newborn cells) ([1]; eleven-week-old rats (n = 2), Figures 3-6, 4 mg/kg/day)	proliferation-promoting activity (number of BrdU+ positive cells) [1]	IC50 (hCMEC/D3 cells)	neurogenesis-promoting activity (number of NeuN+ and BrdU+ cells, newborn neurons) ([2]; nine-week-old rats (n = 2), i.p. 4.0 mg/kg/day for 28 days, BrdU pulse, Figure 7B, 4 mg/kg/day)	neurogenesis-promoting activity (number of NeuN+ and BrdU+ cells), differentiation stage [2]
CC(C)C(=O)Nc1ccc(/C(C#N)=C/c2ccc3c(c2)OCO3)cc1 [29b, (Z)-N-(4-(2-(benzo[d][1, 3]dioxol-5-yl)-1-cyanovinyl)phenyl)isobutyramide]	significant proliferation-promoting activity; also recorded: satisfactory activity	significant proliferation-promoting activity; also recorded: exhibited proliferative activity	> 200 µM	significant neurogenesis-promoting activity; also recorded: significantly increased the number of newborn neurons	significant neurogenesis-promoting activity; also recorded: better activity than the clinical drug NSI-189
CC(C)C(=O)Nc1ccc(/C=C(\C#N)c2ccc3c(c2)OCO3)cc1 [32b, (Z)-N-(4-(2-(benzo[d][1, 3]dioxol-5-yl)-2-cyanovinyl)phenyl)isobutyramide]		significant proliferation-promoting activity; also recorded: exhibited proliferative activity	> 200 µM		significant neurogenesis-promoting activity; also recorded: better activity than the clinical drug NSI-189; also recorded: highest activity
